The record followed here is US20070207123A1, “Amelioration of effects of cigarette smoke” (priority 2002, published 2007).

Test [1] concerns mononuclear cells of SSCS-exposed mice. Nature of the test: Micronuclei formation in bone marrow and peripheral blood cells after SSCS exposure. The test is classed as in vivo, mouse (C57B1/6). As for the experimental part:
Determination of micronuclei formation was made as described by Fenech (3). Briefly, animals were exposed to cigarette smoke ±SP treatment. Viable mononuclear cells were isolated from peripheral blood and bone marrow, stimulated with the mitogen PHA for 44 h, and treated with cytochalasin B for 28 h. Cytocentrifuge preparations were made, cells fixed and then analyzed at 1000× for micronuclei formation. At least 1000 cells were analyzed for each preparation.
Exposure to cigarette smoke results in genetic changes that can cause malignant cellular transformation (21, 22). Animals were exposed to SSCS as described above and sacrificed after 7 days. Viable mononuclear cells were isolated from peripheral blood and bone marrow, stimulated with the mitogen PHA for 44 h, and treated with cytochalasin B for 28 h. Cytocentrifuge preparations were made, cells fixed and then analyzed at 1000× for micronuclei formation. At least 1000 cells were analyzed from each preparation. […] Micronuclei formation in combination with damage of lung epithelia can result on pathological conditions such as emphysema and cancer (21).

The test system of test [2] is airway epithelium and basement membranes of SSCS-exposed mice. Nature of the test: Electron microscopy of lung airway after SSCS exposure. It is filed as in vivo, mouse (C57B1/6). As for the experimental part:
Mice were exposed to side-stream cigarette smoke as previously described (23). […] The cigarette was lit, placed upright in a ring clamp and the smoke was directed into a funnel for distribution through the chamber (at a concentration designed to simulate human exposure in a smokey bar).
The Substance P (SP) agonist, [Sar^9, Met (O2)^11-substance P] was obtained from Sigma Chemicals (St. Louis, Mo.) and used after reconstitution in sterile saline.
(§1) Mice were treated with the SP analog [Sar^9, Met (O2)^11-substance P] for 15 minutes at the indicated doses following the cigarette smoke exposures as previously described (7, 10). Other than the genetically engineered SP experiments, all SP treatments were by the aerosol route using the previously described exposure chambers.
The lungs were prepared for morphometric study by injection of half-strength Kamovsky's Fluid into a major artery at a constant pressure of 20 cm H2O for 1 h at room temperature. The fixed tissue was then tied off at the artery with #4 suture. The Pathology Core Laboratories of the Southwestern Environmental Health Science Center evaluated the fixed tissue for pathological changes. The fixed tissues were sliced, dehydrated and post-fixed in osmium tetroxide, dehydrated and embedded in Epon-Araldite for high-resolution electron microscopy. Thin sections were cut from the embedded tissue with a diamond knife, mounted on 200 um copper mesh grids, and doubly stained with lead citrate and uranyl acetate. The tissue was viewed and photographed using a Phillips CM12 electron microscope (maximum magnification of 19,000×) (21).
Animals were exposed to SSCS for 45 min/day for 7 days from 1R4 standard research cigarettes (cigarette is lit and then placed upright in a ring clamp and the smoke is directed into a funnel for distribution through our exposure chamber) at a concentration designed to simulate a “smokey bar” scenario for human exposure to sidestream cigarette smoke. The sidestream cigarette smoke is considered highly toxic, even compared to the mainstream cigarette smoke that a human smoker inhales, due to the low combustion temperature of the smoldering cigarette. Subsequent to the exposures, some mice were treated with 1 uM-aerosolized SP for 15 minutes. At the end of one week the animals were sacrificed and lungs removed for electron microscopic analysis. […] The structure of the airway is characterized by airway epithelial cells anchored to a basement membrane. Another basement membrane serves as the anchor for the airway endothelial cells. The SSCS electron micrograph is characterized by swelling in both basement membrane areas of the airway structure and loss of cilia on the surface of the airway epithelium. […]

The next test has as its system B16 tumor cells. Description: Experimental lung metastasis model, aerosolized SP. Conditions: for #Tumors/2 Lungs: mean +/− SD; for % Change in #Tumors/2 Lungs: vs B16 alone. It is filed as in vivo, mouse (B6). On the procedure: as §1
B16 tumor cells (H-2^b) were obtained from the American Type Cell Collection (ATCC) and grown in DMEM media (Sigma, St. Louis, Mo.) supplemented with 10% fetal bovine serum (Hyclone, Colo.), antibiotics, nonessential amino acids and glutamine as. Cells in log growth were used for all experiments. An experimental lung metastasis model was utilized in which B16 tumor cells (0.5×10^6 cells in 100 ul saline) were injected intravenously into syngeneic B6 mice. At 7-10 days post-injection the animals were sacrificed and the visually prominent (black) tumors on the surface of both lungs were enumerated.
The Student's t-test was utilized to analyze the data presented. A p value of 0.05 (or lower) was used as a minimally significant difference.

For test [3], the system named is mice exposed to side-stream cigarette smoke (SSCS). Description: Dynamic lung compliance after side-stream cigarette smoke (SSCS) exposure. The test is classed as in vivo, mouse (C57B1/6). As for the experimental part: C57B1/6 (B6, Jackson Labs) mice were utilized. Mice were used at an age of 8-12 weeks, 25-35 grams in weight. Female animals only were utilized. All animals were housed in the animal facility of the Dept. of Animal Resources at The University of Arizona Health Sciences Center. Animals were used in AAALAC-approved protocols.
Aerosolized exposures were performed using a DeVilbiss Ultra-Neb nebulizer (Model 099HD, Somerset, Pa.). Animals were exposed in a nose-only presentation while held in individual subject loading tubes similarly to that previously described (12). The tubes were nose cone-fitted to receiving adapters that originated from the common exposure chamber (volume 0.0027 m3, IN-TOX, Albuquerque, N. Mex.). […] Exposure concentration was determined by a seven-stage cascade impactor (IN-TOX) from changes in plate weights and measured immediately after each exposure. […]
Mice were anesthetized with ketamine hydrochloride (80 mg/kg), xylazine (10 mg/kg) and acepromazine maleate (3 mg/kg). […] Airflow was measured with a pneumotachograph (Fleisch #0000, Instrumentation Associates, New York, N.Y.) that was coupled to a differential pressure transducer (Validyne, Northridge, Calif.). […] These lung function parameters were measured with a modified PEDS-LAB (Medical Associated Services, Hatfield, Pa.) pulmonary function system. […]

The test system of test [4] is pulmonary alveolar macrophages (PAM). Nature of the test: TNF-alpha secretion by pulmonary alveolar macrophages (ELISA). The test is classed as cell-based, rat (Fischer 344). Conditions: overnight incubation, baseline 8.3 pg/ml per 1 × 10^6 cells, N 5. As for the experimental part:
Rat pulmonary alveolar macrophages (PAM) were isolated from pathogen-free male Fischer 344 rats (Harlan, Indianapolis, Ind.). The rats were anesthetized intramuscularly with ketamine HCL (80 mg/kg; Parke-Davis, Morris Plains, N.J.), xylazine (10 mg/kg; Mobay Corp., Shawnee, Kans.) and acepromazine maleate (3 mg/kg; Fermenta Animal Health Co., Kansas City, Mo.). A tracheostomy was performed, with the insertion of a Teflon #18 gauge catheter (Critikon, Tampa Bay, Fla.) as an endotracheal tube. The rats were killed by exsanguination of the abdominal aorta. The lungs were removed and lavaged with 3 ml aliquots of normal sterile saline warmed to 37 C for a total of 6 washes. The lavaged total cell numbers and PAM differentials were determined from a 0.2 ml sample by hemocytometer counting and cytocentrifuge preparation stained with Diff-Quik (Dade Diagnostics, Aguada, Puerto Rico), respectively. The remaining lavaged fluid was pooled and centrifuged at 400×g for 10 minutes to obtain a cell pellet. […] Cells were then counted using a standard hemocytometer and placed in 12 well plates at a density of 10^4 cells/ml. […]
TNF-alpha secretion by pulmonary alveolar macrophages (PAM) was measured by ELISA (R&D Systems, Minneapolis, Minn.) according to the manufacturer's instructions (25).
(An ELISA detects its analyte on a solid surface through an enzyme-linked reagent.)

[5] abbreviates: SSCS + SP, 7 days, mean +/− SD, N 6.
Setting [6] is: SSCS 45 min/day then 15 min aerosol dose, FIG. 2.

Marks after values point to notes of the source that are not given here.

Take [Sar^9, Met (O2)^11-substance P] [SP]: in test [1] (SP immediately after SSCS exposure, blood and bone marrow cells), the “levels of micronuclei formation versus control animals” value is given as “comparable to control animals”. In addition, the “Percent Micronuclei, Blood” value in test [1] (setting [5]) is 0.01 +/− 0.01* Percent. Further, in test [1] (setting [5]), the “Percent Micronuclei, Bone Marrow” value is 0 +/− 0* Percent. Also, the “deterioration of the lung epithelium / basement membrane (electron microscopy)” value in test [2] (SSCS 45 min/day 7 days, 1 uM aerosolized SP 15 min) is reported as “attenuated such deterioration of the lung epithelium”. In addition, in test [2] (setting [6]), the “airway basement membranes (electron micrograph)” value was “normal appearance of airway basement membranes”. The “airway cilia (electron micrograph)” value in test [2] (setting [6]) was “normal cilia”. Also, the “cell membrane between airway cells (electron micrograph)” value in test [2] (SSCS 45 min/day then 15 min aerosol dose, FIG. 3) is on record as “identifiable cell membrane between airway cells”. The “inhibition of lung tumor formation” value in the test on B16 tumor cells (Experiments 1 to 3, aerosolized SP at the time of or after tumor induction) is 58-97%. For the same substance, the “#Tumors/2 Lungs” value is reported as 39 +/− 4* in the test on B16 tumor cells (Expt. 1: aerosolized SP at the time of tumor induction, N 4); 1 +/− 0.3* in the test with B16 tumor cells (Expt. 2: aerosolized SP at day 7 following tumor induction, N 4); 102 +/− 32* in the test on B16 tumor cells (Expt. 3: aerosolized SP at day 7 following tumor induction, N 8). Besides, the results for the “% Change in #Tumors/2 Lungs” value with B16 tumor cells (Expt. 1: aerosolized SP at the time of tumor induction), in the test with B16 tumor cells (Expt. 2: aerosolized SP at day 7 following tumor induction) and in the test with B16 tumor cells (Expt. 3: aerosolized SP at day 7 following tumor induction) were −63%, −97% and −58%, respectively. In addition, in test [3] (SP immediately after the smoke exposures), the “alterations in lung compliance due to SSCS” value is given as “prevented/reversed”. Also, the “Dynamic Lung Compliance” value in test [3] (SSCS 45 min/day for 1 week, then 1 uM aerosolized SP for 15 min, mean +/− SEM, N 15) is 2.2 (0.02) ml · cm H2O^−1 · Kg^−1. The “Fold-Increase TNFa” value is given as 3.2X in test [4] (8 nM SP) and 5.4X in test [4] (1 uM SP).
